Experiment [1] deals with Vibrio rotiferianus. The experiment is described as follows: Antibacterial activity against Vibrio rotiferianus MCCC E385 assessed as cell growth inhibition measured after 24 hrs by resazurin dye based assay. The class given is functional.
The test system of experiment [2] is Vibrio campbellii. The experiment in a line: Antibacterial activity against Vibrio campbellii MCCC E333 assessed as cell growth inhibition measured after 24 hrs by resazurin dye based assay. It counts as functional.
Experiment [3] concerns Vibrio vulnificus. The experiment in a line: Antibacterial activity against Vibrio vulnificus MCCC E1758 assessed as cell growth inhibition measured after 24 hrs by resazurin dye based assay. The class given is functional.
Experiment [4] concerns Vibrio anguillarum. The experiment in a line: Antimicrobial activity against Vibrio anguillarum assessed as bacterial growth inhibition by well diffusion method. It counts as functional.
In experiment [5] the test system is Vibrio brasiliensis. The experiment is described as follows: Antimicrobial activity against Vibrio brasiliensis assessed as bacterial growth inhibition. The class given is functional.
Experiment [6] relates to Vibrio scophthalmi. The experiment is described as follows: Antimicrobial activity against Vibrio scophthalmi assessed as bacterial growth inhibition. The class given is functional.
The subject of experiment [7] is Vibrio mediterranei. The experiment in a line: Antimicrobial activity against Vibrio mediterranei assessed as bacterial growth inhibition. It counts as functional.
The subject of experiment [8] is Vibrio parahaemolyticus. The experiment is described as follows: Antibacterial activity against Vibrio parahaemolyticus assessed as bacterial growth inhibition by broth microdilution. The class given is functional.
In experiment [9] the test system is Vibrio vulnificus. The experiment is described as follows: Antibacterial activity against Vibrio vulnificus MCCC E1758 assessed as bacterial growth inhibition measured after 24 hrs by resazurin dye based assay. The class given is functional.
The test system of experiment [10] is Vibrio harveyi. The experiment in a line: Antimicrobial activity against Vibrio harveyi BB120 assessed as bacterial growth reduction by bioluminescence based Quorum-Sensing assay. The class given is functional, organism-based.
Experiment [11] has as its system Vibrio harveyi. The experiment is described as follows: Antimicrobial activity against Vibrio harveyi assessed as bacterial growth inhibition. It counts as functional.
Experiment [12] deals with Vibrio natriegens. The experiment is described as follows: Antimicrobial activity against Vibrio natriegens assessed as bacterial growth inhibition. It counts as functional.
The subject of experiment [13] is Vibrio proteolyticus. The experiment is described as follows: Antimicrobial activity against Vibrio proteolyticus assessed as bacterial growth inhibition. It counts as functional.
Experiment [14] relates to Vibrio harveyi. The experiment is described as follows: Antimicrobial activity against Vibrio harveyi QDIO-7 assessed as bacterial growth inhibition by microplate reader assay. The class given is functional.
In experiment [15] the test system is Vibrio vulnificus. The experiment in a line: Antimicrobial activity against Vibrio vulnificus QDIO-7 assessed as bacterial growth inhibition by microplate reader assay. The class given is functional.
The subject of experiment [16] is Vibrio alginolyticus. The experiment in a line: Antibacterial activity against Vibrio alginolyticus assessed as zone of inhibition measured after 24 to 48 hrs by agar well diffusion assay. The class given is functional. The conditions noted are these: time 24-48 hrs.
The test system of experiment [17] is Vibrio cholerae. The experiment is described as follows: Antibacterial activity against Vibrio cholerae assessed as zone of inhibition measured after 24 to 48 hrs by agar well diffusion assay. The class given is functional. The conditions noted are these: time 24-48 hrs.
Experiment [18] deals with Vibrio parahaemolyticus. The experiment in a line: Antibacterial activity against Vibrio parahaemolyticus assessed as zone of inhibition measured after 24 to 48 hrs by agar well diffusion assay. It counts as functional. The conditions noted are these: time 24-48 hrs.
The test system of experiment [19] is Vibrio sp. The experiment in a line: Antibacterial activity against Vibrio sp. assessed as bacterial growth inhibition by GC-MS analysis. The class given is functional.
Experiment [20] has as its system Vibrio alginolyticus. The experiment is described as follows: Antimicrobial activity against Vibrio alginolyticus QDIO-7 assessed as bacterial growth inhibition by microtiter plate reader analysis. It counts as functional.
Experiment [21] relates to Vibrio vulnificus. The experiment is described as follows: Antimicrobial activity against Vibrio vulnificus QDIO-4 assessed as bacterial growth inhibition by microtiter plate reader analysis. The class given is functional.
Experiment [22] deals with Vibrio vulnificus. The experiment is described as follows: Antimicrobial activity against Vibrio vulnificus MCCC E1758 assessed as bacterial growth inhibition by resazurin dye based assay. The class given is functional.
For experiment [23], the system named is Vibrio campbellii. The experiment in a line: Antimicrobial activity against Vibrio campbellii MCCC E333 assessed as bacterial growth inhibition by resazurin dye based assay. It counts as functional.
Experiment [24] deals with Vibrio anguillarum. The experiment in a line: Antimicrobial activity against Vibrio anguillarum QDIO-1 assessed as bacterial growth inhibition. The class given is functional.
The subject of experiment [25] is Vibrio alginolyticus. The experiment in a line: Antibacterial activity against Vibrio alginolyticus assessed as bacterial growth inhibition. It counts as functional.
Experiment [26] deals with Vibrio rotiferianus. The experiment is described as follows: Antibacterial activity against Vibrio rotiferianus MCCC E385 assessed as bacterial growth inhibition measured after 24 hrs by resazurin dye based assay. It counts as functional.
The test system of experiment [27] is Vibrio sp. The experiment is described as follows: Antibacterial activity against Vibrio sp. assessed as bacterial growth inhibition relative to control. It counts as functional.
For experiment [28], the system named is Vibrio harveyi. The experiment in a line: Antimicrobial activity against Vibrio harveyi assessed as bacterial growth inhibition by two fold dilution assay. The class given is functional.

Converted amounts (≈) assume the structure as drawn.

As to `COc1cc2oc3c(OC)c(-c4ccc(O)c(CC=C(C)C)c4)cc(OC)c3c2cc1O`, the MIC in experiment [1] worked out at 7.75 µg/mL (≈ 17.8 µM); in experiment [2], 15.6 µg/mL (≈ 35.9 µM); in experiment [3], 7.77 µg/mL (≈ 17.9 µM).

For `C=C(C)[C@H]1O[C@H]2CC[C@@]3(C)[C@@](O)(CC[C@@]4(O)[C@@H]5OC(C)(C)[C@H]6C[C@@H]7C(=C)Cc8c(Cl)cc9[nH]c(c5c9c8[C@@]76O)[C@]34C)[C@]23O[C@@H]3[C@H]1O`, in experiment [4], the MIC turned out to be 16 µg/mL (≈ 24.6 µM).

In the case of `C=C(C(C)C)[C@H](C[C@@H](C)[C@H]1CC[C@H]2[C@@H]3C(=O)C=C4C[C@@H](O)CC[C@]4(C)[C@H]3CC[C@]12C)OC(C)=O`, the MIC came to 9 µg/mL (≈ 19.1 µM) in experiment [5], 8 µg/mL (≈ 17 µM) in experiment [6] and 8 µg/mL (≈ 17 µM) in experiment [7].

Take `COC(=O)[C@@H](C)CCc1cc(O)c(C)cc1O`: the MIC in [8] stood at 12.5 µg/mL (≈ 52.5 µM).

Turning to `CC[C@H](C)/C=C/C1=CC2=C(Cl)C(=O)[C@@]3(C)OC(=O)C(C(=O)[C@@H](C)[C@@H](C)O)=C3C2=CN1CCOCCO`, the MIC in experiment [9] was 7.4 µg/mL (≈ 14.2 µM).

As for `CC(C)CC(=O)NCCc1ccccc1`, the EC50 in [10] worked out at 9 µg/mL (≈ 43.8 µM).

As to `C=CC(C)(C)C1(CC2NC(=O)c3ccccc3N(C)C2=O)C(=O)N(O)c2ccccc21` (stereo not drawn), the minimum inhibitory concentration (MIC) in experiment [11] came to 1 µg/mL (≈ 2.38 µM); in [12], 1 µg/mL (≈ 2.38 µM); in experiment [13], 0.1 µg/mL (≈ 0.238 µM).

Consider `COC(=O)CCc1oc2cc(O)cc(C)c2c1-c1cc(O)c(C)c(O)c1C`, for which the MIC was 32 µg/mL in [14] and 64 µg/mL in [15].

`CCCCCCCCCCCCC(=O)NCCC(C)C`: the figures for the “inhibition zone (IZ)” value in experiment [16], in experiment [17] and in [18] were 16.3 mm, 13.7 mm and 9.66 mm, respectively.

Turning to `O=C1CCC2(CCC(=O)N2)N1`, the MIC in experiment [19] was at most 0.78 µg/mL.

As for `CC(=O)OC/C=C\c1ccc(O)cc1CO`, the MIC in experiment [20] and in [21] was 8 µg/mL throughout.

For `Cc1c(O)cc(O)cc1[C@H](C)[C@@H](C)OC=O`, the MIC in [22] is 15.7 µg/mL (≈ 70 µM); in experiment [23] it was 15.6 µg/mL (≈ 69.6 µM).

With `CC(C)[C@@H](C)/C=C/[C@@H](C)[C@H]1CC[C@@H]2[C@]1(C)CC[C@H]1[C@]23O[C@H]3C(=O)C2=CC(=O)CC[C@@]21C`, in experiment [24], the MIC stood at 32 µg/mL (≈ 75.4 µM).

Take `CCCCCCC(O)CCCCCC/C=C/C(O)C1C=C(NC(C)=O)C(=O)O1` (stereo not drawn): the MIC in [25] was 8 µg/mL (≈ 20.2 µM).

With `CC[C@H](C)/C=C/C1=CC2=C(Cl)C(=O)[C@@]3(C)OC(=O)C(C(=O)[C@@H](C)[C@@H](C)O)=C3C2=CN1NC(=O)c1ccc(O)cc1`, the MIC in [26] came out at 7.3 µg/mL (≈ 12.9 µM).

As for `COc1cc(-c2ccc(O)cc2)c(OC)c(O)c1-c1ccc(O)cc1` [TERPHENYLLIN], in experiment [27], the “inhibition (INH)” value is reported as above 80%.

Take `COC(=O)C1=CC(=O)C=C(OC)C12Oc1cc(C)cc(OC)c1C2=O` (stereo not drawn) [TRYPACIDIN]: the MIC in experiment [28] is 31.2 µg/mL (≈ 90.6 µM).

Values taken from ChEMBL document CHEMBL5360560, “Anti-Vibrio potential of natural products from marine microorganisms” (Eur J Med Chem, 2023).
